Several values for one entry are separate records, joined by “and”; a condition that tells them apart may be missing. Equal values may be shown once.
Assays:
NF-kappa B = NF-kappa B luciferase reporter assay in H292 cells; assay type: cell-based, human; details: 10 μm, TNF-alpha 20 ng/ml
Procedure: NF-kappa B luciferase reporter assay was performed by following procedure disclosed in the literature (Pulin Che et al., Assay Drug Dev. Technol., 2012, 10, 61-68).
In order to establish the stable cells for NF-kappa B luciferase reporter assay, NF-kappa B response element was cloned into vector (pGL4.32 vector, E849A, Promega) according to the manufacture's protocol and infected to the cell (H292 cells, CRL-1848, ATCC) using by Lipofectamine 2000 (11668-019, Invitrogen). The infected cell was selected using by hygromycin (400 μg/ml) for 2 weeks and the colonies were individually cloned and proliferated. […] The test sample was pre-treated in a pre-determined concentration and 20 ng/ml of TNF-alpha was treated therewith for 12 hours. The activity of luciferase enzyme was determined by E6110 kit (OneGlo Luciferase Assay kit, Promega) and DMSO was used as a vehicle control.
The stably expressed H292 cells, a […] human bronchial epithelium cell, with luciferase reporter vector pGL4.32 (luc2P/NF-KB-RE/Hygro, Promega Company) were established prior to following experiment. […] The activation degree of luciferase was determined by One-glow Luciferase Assay system (Promega Company). […] The luminescence was determined by Microplate Luminometer LB 96V (EG&G Berthold company) for 0.5 sec and the result was shown in Table 5 and FIG. 3.

[1] = tested on: asthma-induced animal model (OVA); experiment: Anti-asthma activity in OVA-sensitized/challenged mouse model; assay type: in vivo, BALB/c mice; details: OVA asthma mice
Procedure: In order to determine the anti-asthma activity of test sample in asthma-induced animal model, following test was performed by the method disclosed in the literature (Shin, I. S. et al., Food Chem. Toxicol., 2013, 62, 506-513)
Specific pathogen-free female BALB/c mice (about 20 g), aged 6 weeks, which were routinely screened serologically for relevant respiratory pathogens, were purchased from Samtako Co. (Seoul, Korea) and acclimated with the experimental environment under the condition controlling the temperature of 22±2° C., and relative humidity of 55±15%, at light/dark cycle for 1 week prior to experiment.
Briefly, mice were sensitized by intraperitoneal injection of 20 μg OVA (Ovalbumin; A5503, Sigma, St. Louis, Mo.), which was emulsified in 2 mg aluminum hydroxide (A8222, Sigma-Aldrich, MO. USA) in 200 μl of PBS buffer (pH 7.4), biweekly. The mice were challenged through the airways with OVA (1% in PBS) for 30 min using an ultrasonic nebulizer (NE-U12; Omron Corp., Tokyo, Japan) from the 21st day to 23rd day after the initial sensitization. 24 hrs after the antigen treatment, the airway hyperresponsiveness was determined and the mice were sacrificed 48 hrs after the last challenge. The mice were sacrificed with an overdose of pentobarbital (50 mg/kg, Entobal®, Hanil, Korea) 48 h after the last challenge, and a tracheotomy was performed. After 1.4 ml of physiological saline solution (PBS) was instilled into the lungs, bronchoalveolar lavage fluid (BALF) was obtained by aspiration three times via tracheal cannulation.
The groups were divided into several groups, i.e., (a) normal control group(NC): the groups treated or not-treated with OVA; (b) asthma-induced group(OVA): the groups treated with OVA to induce asthma; and (c) comparative group: the groups treated with positive control group (M30, montelukast; 30 mg/kg, PO, Sigma-Aldrich Co. Ltd., SML-0101+OVA) and (d) test sample group: the groups treated with KS534 compound (30 mg/kg, PO, Sigma-Aldrich Co. Ltd., SML-0101+OVA).
The test group consists of 7 mice for each group and various concentrations of the test sample were orally administrated to the mice from 21st to 23rd day after ^1st OVA treatment.
All the result obtained from various experiments was recorded as mean±SD (standard deviation), and the comparison between each group was determined using by one-way ANOVA test using by SPSS 10.0 program. The statistic significance between each group was determined according to Dunnett's multiple comparison tests as a post-hoc test). The result was expressed as P values: <0.05 (*) as statistically significant. […]
BALF was loaded onto a slide and centrifuged to fix the cells onto the slide using a Cellspin machine (Cyto12.5+clip5, Hanil Science Industrial, Korea). The cells were stained by Diff-Quick® Stain reagents (Sysmex, Cat No. 38721, Switzerland) according to the manufacturer's instructions and the number of inflammatory cells in each sample was counted by microscope (×400).
In order to confirm the inhibition effect of test samples on the level of Th2 cytokines (IL-4, IL-5 and IL-13) in bronchoalveolar lavage fluid (BALF), the level of Th2 cytokines (IL-4, IL-5 and IL-13) in bronchoalveolar lavage fluid (BALF) was determined using by ELISA kit (VersaMax, Molecular Devices, USA) specifically reacting with each cytokine according to the manufacture's manual. […]

Q: For O=C(CO)O[C@@H]1O[C@@H]2C[C@H]3[C@H](OC(=O)c4ccc(O)c(O)c4)[C@@H](Cl)[C@@](O)(CO2)[C@@H]13 [KS-534, (3R,5S,5aS,6R,7S,8R,8aS)-8-chloro-8a-hydroxy-5-(2-hydroxyacetoxy) hexahydro-1H-3,6-methanocyclopenta[e][1,3]dioxepin-7-yl3,4-dihydroxybenzoate], which “Inhibitory ratio (%) of NF-kappa B activity” value (NF-kappa B) is on record?
A: 36.65%

Q: What about the “NF-kappa B activity (relative % comparing with TNF-alpha treatment group)” value (NF-kappa B) of the same compound?
A: 63.35% and 63.35 ± 6.18%

Q: And the “level of Th2 cytokines (IL-4, IL-5 and IL-13) in BALF” value ([1]; 30 mg/kg PO, ELISA, vs OVA group (FIG. 6))?
A: significantly reduced

Q: What about the “level of IgE and OVA-specific IgE in blood serum” value ([1]; 30 mg/kg PO, ELISA, vs OVA group (FIG. 7)) of the same compound?
A: significantly reduced

Q: And the “invasion of the inflamed cells in lung tissue (H&E histology)” value ([1]; 30 mg/kg PO, vs OVA group (FIG. 8))?
A: significantly reduced

Q: What about the “mucosal secretion from the goblet cell of bronchial epithelial cells in lung tissue (PAS)” value ([1]; 30 mg/kg PO, vs OVA group (FIG. 9)) of the same compound?
A: significantly reduced

Q: And the “total number of eosinophil and inflammatory cells in BALF” value ([1]; oral, vs OVA group (FIG. 5))?
A: effectively inhibited

— US20170217982A1, “Compound isolated from Pseudolysimachion rotundum var. subintegrum, the composition comprising the same for treating allergic disease, inflammatory disease, asthma or chronic obstructive pulmonary disease and the use thereof” (YUNGJIN PHARMACEUTICAL CO., LTD, priority 2014, published 2017)
